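Method: 48-hour compound exposure of cells in 96-well plates, five concentrations, linear interpolation of endpoints. GI50 is the concentration that inhibits growth by half. TGI denotes the concentration required for complete inhibition of growth.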
Experiments:
Assay in all cases: NCI tumour cell line growth inhibition, 48 h
RXF-631 renal = system: RXF-631 renal
KM20L2 colon = system: KM20L2 colon
HOP-18 NSCLC = system: HOP-18 NSCLC
M19-MEL melanoma = system: M19-MEL melanoma
LXFL 529 NSCLC = system: LXFL 529 NSCLC
DLD-1 colon = system: DLD-1 colon
P388 leukemia = system: P388 leukemia
XF 498 CNS = system: XF 498 CNS
DMS 273 small cell lung = system: DMS 273 small cell lung
P388/ADR leukemia = system: P388/ADR leukemia
SN12K1 renal = system: SN12K1 renal

Row | SMILES | TGI (RXF-631 renal) [µM] | TGI (KM20L2 colon) [µM] | TGI (HOP-18 NSCLC) [µM] | TGI (M19-MEL melanoma) [µM] | TGI (LXFL 529 NSCLC) [µM] | TGI (DLD-1 colon) [µM] | TGI (P388 leukemia) [µM] | TGI (XF 498 CNS) [µM] | TGI (DMS 273 small cell lung) [µM] | TGI (P388/ADR leukemia) [µM] | TGI (SN12K1 renal) [µM] | GI50 (HOP-18 NSCLC) [µM] | GI50 (M19-MEL melanoma) [µM] | GI50 (DMS 273 small cell lung) [µM] | GI50 (DLD-1 colon) [µM] | GI50 (P388 leukemia) [µM] | GI50 (KM20L2 colon) [µM] | GI50 (XF 498 CNS) [µM] | GI50 (P388/ADR leukemia) [µM] | GI50 (SN12K1 renal) [µM]
1 | C/C(=C\C(=O)Nc1ccc2n[nH]nc2c1)Nc1ccc2n[nH]nc2c1 | > 100 | > 100 | > 100 | > 100 | > 100 | > 100 |  |  |  |  |  |  |  |  |  |  |  |  |  | 
2 | Cc1c2cc[n+](Cc3ccc(I)cc3)cc2c(C)c2c1[nH]c1ccccc12 |  | > 15.4 | > 13.2 | 1.49 |  | > 25 | 0.558 | 1.17 | 6.17 | > 25 | 5.92 |  |  |  |  |  |  |  |  | 
3 | Nc1cccc(-c2cc(=O)c3cc4c(cc3[nH]2)OCO4)c1 |  |  | > 100 | > 100 | > 100 |  |  | > 100 | 3.83 |  |  |  |  |  |  |  |  |  |  | 
4 | Oc1c(Br)cc2c(c1Br)-c1c(c(O)c3c4c1=NCCC=4C=N3)NCC2 |  | 18.7 | 35.6 | 8.82 |  | 25 | > 22.2 | 27.2 | 27.7 | 43.2 | 17.4 |  |  |  |  |  |  |  |  | 
5 | CNC(=S)N/N=C/C(C)=N/NC(=S)NC |  | > 100 | > 100 | > 100 |  |  |  |  | > 100 |  |  |  |  |  |  |  |  |  |  | 
6 | N#C[S-].[La+3].c1ccc(-c2ccccn2)nc1.c1ccc(-c2ccccn2)nc1.c1ccc(-c2ccccn2)nc1 |  |  | > 100 | > 100 |  | > 100 |  |  | 88.5 |  |  | 27.1 | 38 | 19.1 | 17.2 |  |  |  |  | 
7 | [CH3][Sn]([CH3])([CH3])[S]C(=S)N1CCOCC1 |  | 8.2 | > 100 | 31.7 |  | 5.54 | 0.389 | 5.97 | 6.13 | 0.902 | 12.1 | 3.85 | 0.73 | 0.508 | 0.162 | 0.082 | 0.789 | 0.643 | 0.136 | 1.12
8 | Cc1ccc(C)c2c1C1CCCCC3(OCCCO3)C21O (configuration not stated) |  | > 100 | > 100 | > 100 | > 100 | > 100 |  |  | > 100 |  |  |  |  |  |  |  |  |  |  | 
9 | Cc1nc2ccc(NCCN(C)C)c3c(=O)c4ccccc4n1c23 | 15.8 | 16.9 | 51.2 | 19.5 | 22.6 | 21.3 |  |  |  |  |  |  |  |  |  |  |  |  |  | 
10 | OC12CCC3(OC4CCCCO4)c4ccccc4C3C1c1ccccc12 (configuration not stated) |  | > 100 | > 100 | > 100 | > 100 |  |  | > 100 | > 100 |  |  |  |  |  |  |  |  |  |  | 

Source: PubChem BioAssay (NCI)
